Patent US7452896B2, “Pyrimidine-sulfamides and their use as endothelian receptor antagonist” (Actelion Pharmaceuticals Ltd., priority 2002, dated 2008)

Columns and labels:
[1] = target: T1, human recombinant ETA receptors (Homo sapiens, UniProt P25101); test: Inhibition of [125I]ET-1 binding to membranes of CHO cells expressing human recombinant ETA receptors
T1 construct: expressed in transfected cells; host or cells: CHO cells (microsomal membranes)
T1 sequence (P25101 21-427): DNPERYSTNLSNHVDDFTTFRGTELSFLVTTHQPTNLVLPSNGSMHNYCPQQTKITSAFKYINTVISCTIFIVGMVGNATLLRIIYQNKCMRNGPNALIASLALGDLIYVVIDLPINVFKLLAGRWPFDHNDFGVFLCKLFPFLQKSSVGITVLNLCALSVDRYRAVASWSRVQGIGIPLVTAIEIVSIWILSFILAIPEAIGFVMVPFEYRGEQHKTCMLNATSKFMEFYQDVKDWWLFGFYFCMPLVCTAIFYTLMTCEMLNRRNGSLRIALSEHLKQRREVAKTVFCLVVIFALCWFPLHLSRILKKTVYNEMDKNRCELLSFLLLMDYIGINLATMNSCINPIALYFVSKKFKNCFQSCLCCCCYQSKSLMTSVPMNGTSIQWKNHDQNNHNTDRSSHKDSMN
Protocol: (§1) 1) Inhibition of Endothelin Binding to Membranes from CHO Cells Carrying Human ET Receptors:
(§2) For competition binding studies, membranes of CHO cells expressing human recombinant ETA or ETB receptors were used. Microsomal membranes from recombinant CHO cells were prepared and the binding assay made as previously described (Breu V., et al, FEBS Lett 1993; 334:210).
(§3) The assay was performed in 200 uL 50 mM Tris/HCl buffer, pH 7.4, including 25 mM MnCl2, 1 mM EDTA and 0.5% (w/v) BSA in polypropylene microtiter plates. […] After 2 h, the membranes were filtered on filterplates containing GF/C filters (Unifilterplates from Canberra Packard S.A. Zürich, Switzerland). To each well, 50 uL of scintillation cocktail was added (MicroScint 20, Canberra Packard S.A. Zürich, Switzerland) and the filter plates counted in a microplate counter (TopCount, Canberra Packard S.A. Zürich, Switzerland).
(§4) All the test compounds were dissolved, diluted and added in DMSO.

[2] = target: T2, human recombinant ETB receptors (Homo sapiens, UniProt P24530); test: Inhibition of [125I]ET-1 binding to membranes of CHO cells expressing human recombinant ETB receptors
T2 construct: expressed in transfected cells; host or cells: CHO cells (microsomal membranes)
T2 sequence (P24530 27-442): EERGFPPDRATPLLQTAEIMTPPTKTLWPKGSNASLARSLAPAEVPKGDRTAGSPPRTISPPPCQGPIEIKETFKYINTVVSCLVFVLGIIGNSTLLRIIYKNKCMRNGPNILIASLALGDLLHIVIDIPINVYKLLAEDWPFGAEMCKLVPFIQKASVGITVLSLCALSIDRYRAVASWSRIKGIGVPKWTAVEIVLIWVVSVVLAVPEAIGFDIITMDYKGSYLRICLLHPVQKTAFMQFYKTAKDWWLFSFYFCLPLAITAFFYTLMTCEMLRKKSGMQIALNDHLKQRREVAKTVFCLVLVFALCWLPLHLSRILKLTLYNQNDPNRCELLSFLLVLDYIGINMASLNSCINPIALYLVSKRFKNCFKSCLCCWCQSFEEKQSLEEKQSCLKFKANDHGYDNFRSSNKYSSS
Protocol: as §1, §2, §3, §4

[3] = target: T3, ETA receptors (rat aortic rings) (Rattus norvegicus, UniProt P26684); test: Inhibition of endothelin-1-induced contraction on isolated rat aortic rings; conditions: read-out: pA2 value Aorta (converted)
T3 construct: The thoracic aorta or trachea were excised, dissected and cut in 3-5 mm rings; from tissue; host or cells: thoracic aorta rings of adult Wistar rats, endothelium removed
T3 sequence (P26684 21-426): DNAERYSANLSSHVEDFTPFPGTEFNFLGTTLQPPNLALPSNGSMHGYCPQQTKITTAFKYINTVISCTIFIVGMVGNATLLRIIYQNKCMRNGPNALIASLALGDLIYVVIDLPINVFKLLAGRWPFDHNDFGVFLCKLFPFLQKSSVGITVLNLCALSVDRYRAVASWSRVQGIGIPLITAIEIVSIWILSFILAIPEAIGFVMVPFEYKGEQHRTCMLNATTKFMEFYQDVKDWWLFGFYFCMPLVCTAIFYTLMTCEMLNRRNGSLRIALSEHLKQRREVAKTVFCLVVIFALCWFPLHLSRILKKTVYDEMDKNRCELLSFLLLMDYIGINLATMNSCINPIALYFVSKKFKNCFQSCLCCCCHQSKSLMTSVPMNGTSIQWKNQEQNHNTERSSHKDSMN
Protocol: (§5) 2) Inhibition of Endothelin-Induced Contractions on Isolated Rat Aortic Rings (ETA Receptors) and Rat Tracheal Rings (ETB Receptors):
(§6) The functional inhibitory potency of the endothelin antagonists was assessed by their inhibition of the contraction induced by endothelin-1 on rat aortic rings (ETA receptors) and of the contraction induced by sarafotoxin S6c on rat tracheal rings (ETB receptors). Adult Wistar rats were anesthetized and exsanguinated. The thoracic aorta or trachea were excised, dissected and cut in 3-5 mm rings. The endothelium/epithelium was removed by gentle rubbing of the intimal surface. Each ring was suspended in a 10 ml isolated organ bath filled with Krebs-Henseleit solution (in mM; NaCl 115, KCl 4.7, MgSO4 1.2, KH2PO4 1.5, NaHCO3 25, CaCl2 2.5, glucose 10) kept at 37° C. and gassed with 95% O2 and 5% CO2. The rings were connected to force transducers and isometric tension was recorded (EMKA Technologies SA, Paris, France). The rings were stretched to a resting tension of 3 g (aorta) or 2 g (trachea). […] The functional inhibitory potency of the test compound was assessed by calculating the concentration ratio, i.e. the shift to the right of the EC50 induced by different concentrations of test compound. […]

[4] = target: T4, ETB receptors (rat tracheal rings) (Rattus norvegicus, UniProt P21451); test: Inhibition of sarafotoxin S6c-induced contraction on isolated rat tracheal rings; conditions: contraction induced by sarafotoxin S6c, read-out: pA2 value Trachea (converted)
T4 construct: The thoracic aorta or trachea were excised, dissected and cut in 3-5 mm rings; from tissue; host or cells: tracheal rings of adult Wistar rats, epithelium removed
T4 sequence (P21451 27-442): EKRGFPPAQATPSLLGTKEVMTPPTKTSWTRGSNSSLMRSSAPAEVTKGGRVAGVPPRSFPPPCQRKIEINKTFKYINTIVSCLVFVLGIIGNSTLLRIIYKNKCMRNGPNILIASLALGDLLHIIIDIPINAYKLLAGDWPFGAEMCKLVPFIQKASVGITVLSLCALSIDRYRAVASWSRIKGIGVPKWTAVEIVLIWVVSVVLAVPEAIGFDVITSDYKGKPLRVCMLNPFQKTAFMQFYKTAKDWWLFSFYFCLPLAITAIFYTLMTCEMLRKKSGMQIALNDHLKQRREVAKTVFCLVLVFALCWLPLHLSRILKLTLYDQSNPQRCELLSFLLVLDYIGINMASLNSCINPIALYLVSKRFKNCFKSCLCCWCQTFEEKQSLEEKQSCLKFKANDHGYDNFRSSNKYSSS
Protocol: as §5, §6

| Structure (SMILES) | IC50 [1] [nM] | IC50 [2] [nM] | Kb [3] [nM] | Kb [4] [nM] |
| --- | --- | --- | --- | --- |
| COCCNS(=O)(=O)Nc1ncnc(OCCOc2ncc(Br)cn2)c1-c1ccc(Br)cc1 [Example 2, 2-methoxy-ethanesulfamic acid {5-(4-bromophenyl)-6-[2-(5-bromopyrimidin-2-yloxy)-ethoxy]-pyrimidin-4-yl}-amide] | 0.22 | 222 | 3.31 | > 10000 |
| COCCNS(=O)(=O)Nc1ncnc(OCCOc2ncc(Br)cn2)c1Oc1cc(OC)ccc1Cl [Example 1, 2-methoxy-ethanesulfamic acid [6-[2-(5-bromo-pyrimidin-2-yloxy)-ethoxy]-5-(2-chloro-5-methoxy-phenoxy)-pyrimidin-4-yl]-amide] | 0.28 | 174 | 126 | 5130 |
| COCCNS(=O)(=O)Nc1ncnc(OCCOc2ncc(OC)cn2)c1-c1ccc(Br)cc1 [Example 4, 2-Methoxy-ethanesulfamic acid {5-(4-bromophenyl)-6-[2-(5-methoxypyrimidin-2-yloxy)-ethoxy]-pyrimidin-4-yl}-amide] | 1.27 | 560 | – | – |
| COCCNS(=O)(=O)Nc1ncnc(OCCOc2ncc(SC)cn2)c1-c1ccc(Br)cc1 [Example 3, 2-Methoxy-ethanesulfamic acid {5-(4-bromophenyl)-6-[2-(5-methylsulfanyl-pyrimidin-2-yloxy)-ethoxy]-pyrimidin-4-yl}-amide] | 0.2 | 120 | – | – |
